Active and inactive are the calls of the source. The calls are words filed in the database; no cut-off is given here.
How the values were obtained:
[1] = tested on: HaCaT; assay: Cytotoxicity against human HaCaT cells assessed as LDH level at 2 uM incubated for 4 hrs; type: cell-based
[2] = tested on: HaCaT; assay: Antihyperproliferative activity against human HaCaT cells after 48 hrs by phase contrast microscopic analysis; type: functional, cell-based
[3] = molecular target: T1, NADPH--cytochrome P450 reductase (Homo sapiens, UniProt P16435); assay: Activity at human recombinant CPR assessed as superoxide generation at 100 umol/ml by spectrophotometric assay
T1 sequence (P16435 whole entry): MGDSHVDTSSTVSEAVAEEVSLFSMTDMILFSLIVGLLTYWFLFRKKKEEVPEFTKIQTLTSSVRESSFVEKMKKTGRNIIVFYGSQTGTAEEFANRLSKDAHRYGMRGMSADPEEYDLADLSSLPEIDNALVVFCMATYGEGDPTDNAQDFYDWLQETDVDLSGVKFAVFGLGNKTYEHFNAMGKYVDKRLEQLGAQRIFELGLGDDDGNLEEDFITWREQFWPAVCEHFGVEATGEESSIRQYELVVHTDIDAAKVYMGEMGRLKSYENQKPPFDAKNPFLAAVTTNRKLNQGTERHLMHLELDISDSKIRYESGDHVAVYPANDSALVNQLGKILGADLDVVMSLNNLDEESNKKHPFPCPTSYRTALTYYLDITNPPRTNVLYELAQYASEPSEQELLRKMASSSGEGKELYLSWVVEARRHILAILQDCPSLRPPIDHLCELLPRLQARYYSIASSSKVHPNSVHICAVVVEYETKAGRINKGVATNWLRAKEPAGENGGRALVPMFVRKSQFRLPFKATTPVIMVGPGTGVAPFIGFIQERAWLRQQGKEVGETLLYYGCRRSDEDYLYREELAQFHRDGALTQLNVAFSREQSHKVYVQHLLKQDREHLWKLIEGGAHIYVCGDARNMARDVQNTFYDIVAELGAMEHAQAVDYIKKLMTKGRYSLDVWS

[4] = tested on: HaCaT; assay: Increase in superoxide generation in human HaCaT cells at 5 uM incubated for 18 hrs by DHE-based flow cytometric analysis; type: functional, cell-based
[5] = tested on: HaCaT; assay: Increase in superoxide generation in human HaCaT cells at 5 uM incubated for 18 hrs pretreated with 5 umol/L NQO1 inhibitor dicoumarol for 25 mins followed by compound addition by DHE-based flow cytometric analysis; type: functional, cell-based
[6] = molecular target: NAD(P)H dehydrogenase [quinone] 1 (Homo sapiens) (UniProt P15559); assay: Activity at human recombinant NQO1 assessed as superoxide generation at 25 umol/ml by spectrophotometric assay
Chain of NAD(P)H dehydrogenase [quinone] 1 (Homo sapiens) (P15559 whole entry): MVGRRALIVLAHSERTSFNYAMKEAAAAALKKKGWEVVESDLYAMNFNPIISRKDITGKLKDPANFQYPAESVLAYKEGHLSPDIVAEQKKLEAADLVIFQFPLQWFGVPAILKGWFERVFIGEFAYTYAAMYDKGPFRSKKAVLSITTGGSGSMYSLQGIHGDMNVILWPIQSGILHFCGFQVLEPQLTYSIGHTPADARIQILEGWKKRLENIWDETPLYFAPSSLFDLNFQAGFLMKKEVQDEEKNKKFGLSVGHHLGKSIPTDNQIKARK

With `O=C(Oc1ccccc1)c1cc2c(s1)C(=O)c1c(Cl)cccc1C2=O` as the compound, how does the Activity [1] read?
The Activity was 97 mU/ml.

What about the IC50 [2] of the same compound?
Its IC50 is 10500 nM.

What does the source list for `CCN(CC)C(=O)c1cc2c(s1)C(=O)c1c(Cl)cccc1C2=O`?
Activity [1]: 112 mU/ml; IC50 [2]: 720 nM

Which results are given for `CC(=O)c1cc2c(s1)C(=O)c1c(Br)cccc1C2=O`?
Activity [1]: 116 mU/ml; IC50 [2]: 1500 nM

Which Activity [3] does the source give for `O=C1c2ccsc2C(=O)c2c(O)cccc21` here?
The Activity was “Active”.

And the Activity [4]?
Its Activity is “Active”.

And the Activity [5]?
Its Activity is “Active”.

For `O=C(c1cccnc1)c1cc2c(s1)C(=O)c1c(Br)cccc1C2=O`, which IC50 [2] is on record?
The IC50 was 8630 nM.

For `O=C1c2ccsc2C(=O)c2c(Br)cccc21`, which IC50 [2] is on record?
Its IC50 is 14800 nM.

`O=C1c2ccsc2C(=O)c2c(F)cccc21` was tested. Which IC50 [2] did it give?
The IC50 was 8500 nM.

`CC(=O)c1cc2c(s1)C(=O)c1ccccc1C2=O` was tested. Which Activity [1] did it give?
Its Activity is 253 mU/ml.

What does the source list for `COC(=O)c1cc2c(s1)C(=O)c1c(Br)cccc1C2=O`?
Activity [1]: 124 mU/ml; IC50 [2]: 2200 nM

Which results are given for `CCNC(=O)c1cc2c(s1)C(=O)c1c(Cl)cccc1C2=O`?
Activity [1]: 109 mU/ml; IC50 [2]: 1050 nM

With `O=C1c2ccsc2C(=O)c2c(Cl)cccc21` as the compound, how does the Activity [3] read?
The Activity was “Active”.

What about the Activity [6] of the same compound?
The Activity was “inactive”.

What about the Activity [4] of the same compound?
Its Activity is “Active”.

What about the Activity [5] of the same compound?
The Activity was “Active”.

How did the Activity [3] turn out when `CC1=CC(=O)c2ccccc2C1=O` [MENADIONE] was run?
Its Activity is “Active”.

How did the Activity [1] turn out when `O=C(c1ccccc1)c1cc2c(s1)C(=O)c1c(Cl)cccc1C2=O` was run?
The Activity was 122 mU/ml.

And the IC50 [2]?
The IC50 was 1770 nM.

What does the source list for `CC(=O)c1cc2c(s1)C(=O)c1c(Cl)cccc1C2=O`?
Activity [1]: 124 mU/ml; Activity [3]: Active; Activity [4]: Active; Activity [5]: Active

With `O=C1c2ccsc2C(=O)c2c1cccc2C(F)(F)F` as the compound, how does the IC50 [2] read?
The IC50 was 4850 nM.

What does the source list for `O=C(c1ccccc1)c1cc2c(s1)C(=O)c1c(Br)cccc1C2=O`?
Activity [1]: 121 mU/ml; IC50 [2]: 13200 nM

For `O=Cc1cc2c(s1)C(=O)c1c(Br)cccc1C2=O`, which IC50 [2] is on record?
Its IC50 is 3820 nM.

Which IC50 [2] does the source give for `O=C(Oc1ccccc1)c1cc2c(s1)C(=O)c1c(Br)cccc1C2=O` here?
The IC50 was 6640 nM.

With `O=C(O)c1cc2c(s1)C(=O)c1c(Br)cccc1C2=O` as the compound, how does the Activity [1] read?
Its Activity is 108 mU/ml.

And the IC50 [2]?
The IC50 was greater than 30000 nM.

With `CCC(=O)c1cc2c(s1)C(=O)c1c(Cl)cccc1C2=O` as the compound, how does the Activity [1] read?
Its Activity is 116 mU/ml.

What about the IC50 [2] of the same compound?
The IC50 was 2750 nM.

Which results are given for `COC(=O)c1cc2c(s1)C(=O)c1c(Cl)cccc1C2=O`?
Activity [1]: 130 mU/ml; IC50 [2]: 900 nM

Which Activity [1] does the source give for `O=C(O)c1cc2c(s1)C(=O)c1c(Cl)cccc1C2=O` here?
The Activity was 112 mU/ml.

And the IC50 [2]?
The IC50 was greater than 30000 nM.

Which results are given for `CC(=O)c1cc2c(s1)C(=O)c1c(O)cccc1C2=O`?
Activity [1]: 319 mU/ml; Activity [3]: Active; Activity [4]: Active; Activity [5]: Active

`CCc1noc(-c2cc3c(s2)C(=O)c2c(Cl)cccc2C3=O)n1` was tested. Which Activity [1] did it give?
Its Activity is 121 mU/ml.

What about the IC50 [2] of the same compound?
The IC50 was 590 nM.

What about the Activity [3] of the same compound?
Its Activity is “Active”.

And the Activity [6]?
Its Activity is “inactive”.

And the Activity [4]?
The Activity was “Active”.

What about the Activity [5] of the same compound?
Its Activity is “Active”.

Which results are given for `O=C(c1cccs1)c1cc2c(s1)C(=O)c1c(Cl)cccc1C2=O`?
Activity [1]: 127 mU/ml; IC50 [2]: 1540 nM

For `O=C1c2ccsc2C(=O)c2c(I)cccc21`, which IC50 [2] is on record?
Its IC50 is greater than 30000 nM.

How did the Activity [3] turn out when `CCc1noc(-c2cc3c(s2)C(=O)c2c(O)cccc2C3=O)n1` was run?
Its Activity is “Active”.

And the Activity [4]?
Its Activity is “Active”.

What about the Activity [5] of the same compound?
The Activity was “Active”.

What does the source list for `CCC(=O)c1cc2c(s1)C(=O)c1c(Br)cccc1C2=O`?
Activity [1]: 113 mU/ml; IC50 [2]: 2910 nM

Which results are given for `O=C(c1cccnc1)c1cc2c(s1)C(=O)c1c(Cl)cccc1C2=O`?
Activity [1]: 125 mU/ml; IC50 [2]: 570 nM

Which results are given for `O=C(Nc1ccccc1)c1cc2c(s1)C(=O)c1c(Cl)cccc1C2=O`?
Activity [1]: 121 mU/ml; IC50 [2]: > 30000 nM

`O=C1c2cc(-c3nnn[nH]3)sc2C(=O)c2c(Cl)cccc21` was tested. Which Activity [1] did it give?
Its Activity is 95 mU/ml.

And the IC50 [2]?
The IC50 was greater than 30000 nM.

Which Activity [1] does the source give for `CCOC(=O)c1cc2c(s1)C(=O)c1c(Br)cccc1C2=O` here?
The Activity was 121 mU/ml.

What about the IC50 [2] of the same compound?
Its IC50 is 1720 nM.

Which results are given for `O=Cc1cc2c(s1)C(=O)c1c(Cl)cccc1C2=O`?
Activity [1]: 107 mU/ml; IC50 [2]: 4700 nM

How did the Activity [1] turn out when `CCOC(=O)c1cc2c(s1)C(=O)c1c(Cl)cccc1C2=O` was run?
Its Activity is 97 mU/ml.

What about the IC50 [2] of the same compound?
Its IC50 is 1220 nM.

For `O=C(c1cccs1)c1cc2c(s1)C(=O)c1c(Br)cccc1C2=O`, which Activity [1] is on record?
The Activity was 107 mU/ml.

And the IC50 [2]?
Its IC50 is 11900 nM.
